Source: article PMC6158189, “A pharmacological probe identifies cystathionine β-synthase as a new negative regulator for ferroptosis” (Cell Death & Disease, 2018)

Biological target: T1, endogenous hCBS in HepG2 cells (Homo sapiens, UniProt P35520)
T1 construct: effects of CH004 on the activity of endogenous CBS by incubating with HepG2; endogenous in cells; host or cells: HepG2
T1 sequence (P35520 1-551): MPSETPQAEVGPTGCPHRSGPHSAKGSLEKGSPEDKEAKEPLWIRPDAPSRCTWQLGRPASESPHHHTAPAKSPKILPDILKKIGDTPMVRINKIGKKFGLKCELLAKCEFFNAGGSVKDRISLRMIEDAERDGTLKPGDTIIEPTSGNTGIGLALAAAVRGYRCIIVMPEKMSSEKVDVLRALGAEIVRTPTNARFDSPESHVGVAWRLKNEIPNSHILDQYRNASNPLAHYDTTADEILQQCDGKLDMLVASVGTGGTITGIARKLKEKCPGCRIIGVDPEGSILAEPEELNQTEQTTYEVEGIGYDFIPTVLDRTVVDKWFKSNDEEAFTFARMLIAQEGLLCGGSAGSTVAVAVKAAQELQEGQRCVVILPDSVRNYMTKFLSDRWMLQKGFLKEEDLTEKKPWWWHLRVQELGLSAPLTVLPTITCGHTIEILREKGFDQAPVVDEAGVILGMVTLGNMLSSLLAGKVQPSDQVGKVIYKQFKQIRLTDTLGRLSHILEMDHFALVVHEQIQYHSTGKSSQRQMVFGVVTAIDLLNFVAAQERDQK
Experiment: endogenous H2S in HepG2 cells (AzMC probe)
Type: cell-based
Conditions: for decrease in H2S: HepG2
Description: Fig. 3 The effect of CH004 on the activity of endogenous hCBS in cells. a CH004 dose-dependently elevates the levels of Hcys in HepG2 and HEK293T cells. HepG2 cells or HEK293T cells were incubated with indicated CH004 or DMSO (control) for 12 h. The amount of total Hcys in cells was measured by ELISA using Axis® Homocysteine EIA kit (IBL, AX51301) (“Materials and Methods” section). […] HepG2 cells were treated with indicated DMSO, CH004 or HA for 8 h before the staining with AzMC probe. The amount of the H2S (blue) was quantified and is shown in (c). Bars, 50 μm. Control (CTR), DMSO group (100%). A representative fluorescence image from three independent experiments is shown. Means ± SDS (n = 3). d CH004 elevates Hcys in the peripheral blood of rats. The total Hcys of the blood samples collected from the anesthetized rats at the 75 min time point (Materials and Methods) were quantified by ELISA (see above). Means ± SDS (n = 6).
H2S levels in living cells were detected using a H2S-specific fluorescent probe according to a protocol described previously[31],[55]. To measure H2S in transiently transfected HEK293T cells, the cells were seeded on poly-D-Lys-coated coverslips (Thermo Scientific, Waltham, MA, USA) in 12-well plates at a density of ~ 1 × 10^5 cells per well, and hCBS or hCSE plasmids were transiently transfected by X-tremeGENE HP DNA Transfection Reagent according to the manufacturer’s protocol (Roche, Basel, Switzerland). After 24 h, the transfected cells were treated with DMSO or inhibitors for another 8 h, followed by staining with 7-azide-4-methylcoumarin (AzMC; Sigma-Aldrich). Similarly, HEK293T cells stably expressing CBS WT, Q222A mutant or EV were seeded on poly-D-Lys-coated coverslips in 12-well plates for one day before treatment with DMSO or inhibitors for 8 h. After incubation with 50 μM AzMC at 37 °C for 30 min, the cells were washed 4 times with PBS, and the fluorescent images were recorded with excitation by 405 nm laser by using a A1Si (Nikon) confocal microscope. The intensity of the blue fluorescent signals, indicating the amount of H2S, was quantified by ImageJ software (NIH, Bethesda, ML). The H2S signal was then corrected for the background signal detected in HEK293T cells transiently or stably expressing of empty vector (HEK293T-EV) and normalized by the corresponding cell-occupying area and compared with the control (DMSO group, 100%). Similarly, the H2S signal in HepG2 cells was quantified by AzMC staining, corrected for the background signal outside the cells, normalized by the cell area and expressed as percentages of DMSO control (100%).
To elucidate the subcellular localization of H2S, HepG2 cells were seeded on poly-D-Lys-coated coverslips in 12-well plates. After treatment with DMSO or inhibitors for 8 h, cells were sequentially incubated with 200 nM Mito-Tracker® Green and 50 μM AzMC for 30 min at 37 °C in PBS, and then fluorescent images were taken using a confocal microscope.
Figure S9. The effect of AOAA on the level of endogenous H2S in HepG2 cells. […] HepG2 cells were incubated with 0 (DMSO control), 1, 5 or 10 mM AOAA for 8 h before staining with 50 μM AzMC. Upper panels, the overlaid images; middle panels, the corresponding fluorescent images (blue, H2S); the lower panels, the bright-field images. Bars: 50 μm. (B) Quantification of the mean fluorescent density of H2S (blue). The intensity of H2S was accordingly quantified and normalized by correcting for the background signal outside cells. Data was expressed as percentages of the control (DMSO group, 100%). Means ± SDs (n=3). One-way ANOVA with Bonferroni post-tests was used for the analysis. *, p< 0.05; ***, p< 0.001; n.s. no significance. The images are one representative from three independent experiments.

Cn1nc(Cc2ccccc2)nc2c(=O)n(C)c(=O)nc1-2 [CH004, 3-benzyl-1,6-dimethylpyrimido[5,4-e][1,2,4]triazine-5,7(1H,6H)-dione]
decrease in H2S (5 μM, 8 h): ~ 50%
decrease in H2S (20 μM, 8 h): ~ 90%
mitochondrial H2S (8 h, Mito-tracker Green and AzMC): dose-dependently decreases
potency on inhibiting production of H2S in cells compared with AOAA (CH004 vs AOAA): at least 1000 fold
